Laboratory results as given in ChEMBL document CHEMBL1201861, “Genomics of Drug Sensitity in Cancer screening data, Wellcome Trust Sanger Institute”.

Key:
Kasumi 1 = experiment: cells; assay type: functional, cell-based, Homo sapiens; settings: Homo sapiens, Kasumi 1;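 note: growth inhibition of human Kasumi-1 cells, read out by a cell viability assay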
Description: SANGER: Inhibition of human KASUMI-1 cell growth in a cell viability assay.

NCI-H2196 = experiment: cells; assay type: functional, cell-based, Homo sapiens; settings: Homo sapiens, NCI-H2196; read-out: IC50;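 note: cell viability assay used as the readout of growth inhibition in NCI-H2196 cells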
Description: SANGER: Inhibition of human NCI-H2196 cell growth in a cell viability assay.

BFTC-905 = experiment: cells; assay type: functional, cell-based; settings: Homo sapiens
Description: SANGER: Inhibition of human BFTC-905 cell growth in a cell viability assay.

OVCAR-8 = experiment: cells; assay type: functional, cell-based; settings: Homo sapiens;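 note: growth inhibition of human OVCAR-8 cells, read out by a cell viability assay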
Description: SANGER: Inhibition of human OVCAR-8 cell growth in a cell viability assay.

NCI-H1792 = experiment: cells; assay type: functional, cell-based; settings: Homo sapiens;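 note: growth inhibition of human NCI-H1792 cells, read out as cell viability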
Description: SANGER: Inhibition of human NCI-H1792 cell growth in a cell viability assay.

HCC1954 = experiment: cells; assay type: functional, cell-based; settings: Homo sapiens;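 note: growth inhibition of human HCC1954 cells, read out with a cell viability assay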
Description: SANGER: Inhibition of human HCC1954 cell growth in a cell viability assay.

LK-2 = experiment: cells; assay type: functional, cell-based; settings: Homo sapiens;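 note: growth inhibition of LK-2 cells, read out with a viability assay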
Description: SANGER: Inhibition of human LK-2 cell growth in a cell viability assay.

HMV-2 cell line = experiment: cells; assay type: functional, cell-based; settings: Homo sapiens;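 note: growth inhibition of HMV-II cells, read out with a cell viability assay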
Description: SANGER: Inhibition of human HMV-II cell growth in a cell viability assay.

MHH-ES-1 = experiment: cells; assay type: functional, cell-based; settings: Homo sapiens
Description: SANGER: Inhibition of human MHH-ES-1 cell growth in a cell viability assay.

SAS = experiment: cells; assay type: functional, cell-based; settings: Homo sapiens;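 note: growth inhibition of SAS cells, read out with a cell viability assay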
Description: SANGER: Inhibition of human SAS cell growth in a cell viability assay.

A204 = experiment: cells; assay type: functional, cell-based; settings: Homo sapiens;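 note: growth inhibition of human A204 cells, read out with a cell viability assay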
Description: SANGER: Inhibition of human A204 cell growth in a cell viability assay.

SW837 = experiment: cells; assay type: functional, cell-based; settings: Homo sapiens;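 note: growth inhibition of SW837 cells, determined with a cell viability assay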
Description: SANGER: Inhibition of human SW837 cell growth in a cell viability assay.

NCI-H524 = experiment: cells; assay type: functional, cell-based, Homo sapiens; settings: Homo sapiens, NCI-H524;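 note: growth inhibition of human NCI-H524 cells, read out through a cell viability assay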
Description: SANGER: Inhibition of human NCI-H524 cell growth in a cell viability assay.

PF-382 = experiment: cells; assay type: functional, cell-based, Homo sapiens; settings: Homo sapiens, PF-382
Description: SANGER: Inhibition of human PF-382 cell growth in a cell viability assay.

SU-DHL-1 = experiment: SANGER: Inhibition of human SU-DHL-1 cell growth in a cell viability assay.; assay type: functional, cell-based; settings: Homo sapiens, SU-DHL-1
HSC-4 = experiment: cells; assay type: functional, cell-based; settings: Homo sapiens;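 note: growth inhibition of human HSC-4 cells, read out with a cell viability assay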
Description: SANGER: Inhibition of human HSC-4 cell growth in a cell viability assay.

NCI-H2087 = experiment: cells; assay type: functional, cell-based; settings: Homo sapiens;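 note: growth inhibition determined with a cell viability readout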
Description: SANGER: Inhibition of human NCI-H2087 cell growth in a cell viability assay.

SK-N-AS = experiment: cells; assay type: functional, cell-based; settings: Homo sapiens;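 note: growth inhibition of human SK-N-AS cells, measured with a cell viability assay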
Description: SANGER: Inhibition of human SK-N-AS cell growth in a cell viability assay.

J82 = experiment: cells; assay type: functional, cell-based; settings: Homo sapiens;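 note: growth inhibition of J82 cells, read out with a cell viability assay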
Description: SANGER: Inhibition of human J82 cell growth in a cell viability assay.

T84 = experiment: cells; assay type: functional, cell-based; settings: Homo sapiens;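 note: growth inhibition measured with a cell viability readout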
Description: SANGER: Inhibition of human T84 cell growth in a cell viability assay.

NCI-H1651 = experiment: cells; assay type: functional, cell-based; settings: Homo sapiens;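 note: Read-out is a cell viability assay, with IC50 expressing inhibition of NCI-H1651 cell growth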
Description: SANGER: Inhibition of human NCI-H1651 cell growth in a cell viability assay.

EB2 = experiment: cells; assay type: functional, cell-based, Homo sapiens; settings: Homo sapiens, EB2;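 note: growth inhibition of EB2 cells, read out with a cell viability assay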
Description: SANGER: Inhibition of human EB2 cell growth in a cell viability assay.

HC-1 = experiment: cells; assay type: functional, cell-based, Homo sapiens; settings: Homo sapiens, HC-1;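 note: growth inhibition of HC-1 cells measured by a cell viability assay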
Description: SANGER: Inhibition of human HC-1 cell growth in a cell viability assay.

NCI-H292 = experiment: cells; assay type: functional, cell-based; settings: Homo sapiens;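 note: growth inhibition of NCI-H292 cells, read out with a cell viability assay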
Description: SANGER: Inhibition of human NCI-H292 cell growth in a cell viability assay.

NCI-H28 = experiment: cells; assay type: functional, cell-based; settings: Homo sapiens;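 note: growth inhibition of human NCI-H28 cells, read out as cell viability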
Description: SANGER: Inhibition of human NCI-H28 cell growth in a cell viability assay.

OE33 = experiment: cells; assay type: functional, cell-based; settings: Homo sapiens;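 note: growth inhibition of human OE33 cells, measured by a cell viability assay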
Description: SANGER: Inhibition of human OE33 cell growth in a cell viability assay.

RL95-2 = experiment: cells; assay type: functional, cell-based, Homo sapiens; settings: Homo sapiens, RL95-2;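 note: RL95-2 growth inhibition determined through a cell viability readout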
Description: SANGER: Inhibition of human RL95-2 cell growth in a cell viability assay.

NCI-H358 = experiment: cells; assay type: functional, cell-based; settings: Homo sapiens;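 note: growth inhibition of NCI-H358 human cells, read out with a cell viability assay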
Description: SANGER: Inhibition of human NCI-H358 cell growth in a cell viability assay.

HOS = experiment: cells; assay type: functional, cell-based; settings: Homo sapiens;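 note: growth inhibition of human HOS cells, read out with a cell viability assay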
Description: SANGER: Inhibition of human HOS cell growth in a cell viability assay.

Calu-3 = experiment: cells; assay type: functional, cell-based; settings: Homo sapiens;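 note: growth inhibition of human Calu-3 cells, determined with a cell viability assay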
Description: SANGER: Inhibition of human Calu-3 cell growth in a cell viability assay.

5637 = experiment: cells; assay type: functional, cell-based; settings: Homo sapiens
Description: SANGER: Inhibition of human 5637 cell growth in a cell viability assay.

A2780 = experiment: cells; assay type: functional, cell-based; settings: Homo sapiens;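 note: growth inhibition of A2780 cells, read out with a cell viability assay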
Description: SANGER: Inhibition of human A2780 cell growth in a cell viability assay.

SCLC-21H = experiment: cells; assay type: functional, cell-based, Homo sapiens; settings: Homo sapiens, SCLC-21H;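 note: growth inhibition of cultured human SCLC-21H cells, read out with a cell viability assay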
Description: SANGER: Inhibition of human SCLC-21H cell growth in a cell viability assay.

BCPAP = experiment: cells; assay type: functional, cell-based; settings: Homo sapiens;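 note: growth inhibition of BCPAP cells, read out in a cell viability assay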
Description: SANGER: Inhibition of human BCPAP cell growth in a cell viability assay.

KOSC-2 = experiment: cells; assay type: functional, cell-based; settings: Homo sapiens;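 note: growth inhibition of KOSC-2 cells, read out by a cell viability assay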
Description: SANGER: Inhibition of human KOSC-2 cell growth in a cell viability assay.

HCT-116 = experiment: cells; assay type: functional, cell-based; settings: Homo sapiens
Description: SANGER: Inhibition of human HCT-116 cell growth in a cell viability assay.

RVH-421 = experiment: cells; assay type: functional, cell-based; settings: Homo sapiens
Description: SANGER: Inhibition of human RVH-421 cell growth in a cell viability assay.

HO-1-N-1 = experiment: cells; assay type: functional, cell-based; settings: Homo sapiens;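 note: growth inhibition of human HO-1-N-1 cells, read out with a cell viability assay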
Description: SANGER: Inhibition of human HO-1-N-1 cell growth in a cell viability assay.

769-P = experiment: cells; assay type: functional, cell-based; settings: Homo sapiens
Description: SANGER: Inhibition of human 769-P cell growth in a cell viability assay.

NCI-H522 = experiment: cells; assay type: functional, cell-based; settings: Homo sapiens;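 note: cell viability assay measuring growth inhibition of human NCI-H522 cells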
Description: SANGER: Inhibition of human NCI-H522 cell growth in a cell viability assay.

A-375 = experiment: cells; assay type: functional, cell-based; settings: Homo sapiens;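 note: growth inhibition of A375 cells, read out with a cell viability assay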
Description: SANGER: Inhibition of human A375 cell growth in a cell viability assay.

UACC-62 = experiment: cells; assay type: functional, cell-based; settings: Homo sapiens;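 note: growth inhibition of human UACC-62 cells, read out by a cell viability assay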
Description: SANGER: Inhibition of human UACC-62 cell growth in a cell viability assay.

ABC-1 = experiment: cells; assay type: functional, cell-based; settings: Homo sapiens;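 note: growth inhibition of human ABC-1 cells, read out by a cell viability assay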
Description: SANGER: Inhibition of human ABC-1 cell growth in a cell viability assay.

Capan-2 = experiment: cells; assay type: functional, cell-based; settings: Homo sapiens;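 note: Capan-2 cell growth inhibition, read out with a viability assay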
Description: SANGER: Inhibition of human Capan-2 cell growth in a cell viability assay.

KYSE-150 cell line = experiment: cells; assay type: functional, cell-based; settings: Homo sapiens;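 note: growth inhibition of human KYSE-150 cells, read out with a cell viability assay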
Description: SANGER: Inhibition of human KYSE-150 cell growth in a cell viability assay.

NALM-6 = experiment: cells; assay type: functional, cell-based, Homo sapiens; settings: Homo sapiens, NALM-6;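 note: growth inhibition of NALM-6 cells, read out with a cell viability assay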
Description: SANGER: Inhibition of human NALM-6 cell growth in a cell viability assay.

CAL-27 = experiment: cells; assay type: functional, cell-based; settings: Homo sapiens;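 note: Viability-based readout, IC50 reflecting inhibition of CAL-27 cell growth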
Description: SANGER: Inhibition of human CAL-27 cell growth in a cell viability assay.

KYSE-520 cell line = experiment: cells; assay type: functional, cell-based; settings: Homo sapiens;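 note: growth inhibition of human KYSE-520 cells, read out with a viability assay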
Description: SANGER: Inhibition of human KYSE-520 cell growth in a cell viability assay.

HCC1599 = experiment: cells; assay type: functional, cell-based, Homo sapiens; settings: Homo sapiens, HCC1599;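 note: growth inhibition of HCC1599 cells, read out in a cell viability assay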
Description: SANGER: Inhibition of human HCC1599 cell growth in a cell viability assay.

SCC-9 = experiment: cells; assay type: functional, cell-based; settings: Homo sapiens;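 note: Read-out is a cell viability assay, with values giving inhibition of cell growth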
Description: SANGER: Inhibition of human SCC-9 cell growth in a cell viability assay.

GDM-1 = experiment: cells; assay type: functional, cell-based, Homo sapiens; settings: Homo sapiens, GDM-1; read-out: IC50;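 note: cell viability readout used to measure growth inhibition of human GDM-1 cells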
Description: SANGER: Inhibition of human GDM-1 cell growth in a cell viability assay.

NCI-H1793 = experiment: cells; assay type: functional, cell-based; settings: Homo sapiens;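 note: cell growth inhibition, read out by a cell viability assay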
Description: SANGER: Inhibition of human NCI-H1793 cell growth in a cell viability assay.

NCI-H661 = experiment: cells; assay type: functional, cell-based; settings: Homo sapiens;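 note: cell viability assay read-out, IC50 being the concentration that inhibits growth of the cells by half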
Description: SANGER: Inhibition of human NCI-H661 cell growth in a cell viability assay.

NCI-H1882 = experiment: cells; assay type: functional, cell-based, Homo sapiens; settings: Homo sapiens, NCI-H1882;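 note: growth inhibition of the cell line, determined with a viability assay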
Description: SANGER: Inhibition of human NCI-H1882 cell growth in a cell viability assay.

SW1990 = experiment: cells; assay type: functional, cell-based; settings: Homo sapiens
Description: SANGER: Inhibition of human SW1990 cell growth in a cell viability assay.

SN12C = experiment: cells; assay type: functional, cell-based; settings: Homo sapiens;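 note: growth inhibition of human SN12C cells, measured by a cell viability assay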
Description: SANGER: Inhibition of human SN12C cell growth in a cell viability assay.

TCC-SUP = experiment: cells; assay type: functional, cell-based; settings: Homo sapiens;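 note: growth inhibition of TCC-SUP cells, read out with a cell viability assay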
Description: SANGER: Inhibition of human TCCSUP cell growth in a cell viability assay.

HCC1419 = experiment: cells; assay type: functional, cell-based; settings: Homo sapiens;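 note: growth inhibition of human HCC1419 cells, read out as cell viability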
Description: SANGER: Inhibition of human HCC1419 cell growth in a cell viability assay.

NCI-H460 = experiment: cells; assay type: functional, cell-based; settings: Homo sapiens;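 note: cell viability assay scoring growth inhibition of human NCI-H460 cells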
Description: SANGER: Inhibition of human NCI-H460 cell growth in a cell viability assay.

VM-CUB-1 = experiment: cells; assay type: functional, cell-based; settings: Homo sapiens
Description: SANGER: Inhibition of human VM-CUB-1 cell growth in a cell viability assay.

Measured: IC50

COC(=O)[C@H](CCSC)NC(=O)c1ccc(NC[C@@H](N)CS)cc1-c1ccccc1
> 1020 nM: all assays above
